Values of other authors in patent US11298425B2, “Delivery of a chemotherapy agent across the blood-brain barrier” (ROWLESBIOMED, LLC, priority 2018, dated 2022).
Read-outs that look alike come from different tables or passages of the source.

Experiments:
[1] = rats
[2] = pigs
[3] = humans, measured in the tissues of human cadavers
[4] = mice

SMILES | brain-to-blood ratio [1] | brain-to-blood ratio [2] | brain-to-blood ratio [3] | brain-to-blood ratio [4]
CCCCCc1cc(O)c2c(c1)OC(C)(C)[C@@H]1CCC(C)=C[C@@H]21 [THC, tetrahydrocannabinol] | 2.0 | 2.6 | 3.0 | 1.6
CCCc1cc(O)c2c(c1)OC(C)(C)[C@@H]1CCC(C)=C[C@@H]21 [THCV, tetrahydrocannabivarin] | – | – | – | even higher than THC
